Results taken from PMC10449634, “A general method for the development of multicolor biosensors with large dynamic ranges” (Nature Chemical Biology, 2023).

Tests used:
ATeam 1.03 = molecular target: T1, ATeam 1.03 (Bacillus subtilis, UniProt P37812); experiment: FRET sensor titration; format: binding; details: read-out: C50
T1 construct: gene atpC; epsilon subunit between mseCFP and Venus

ChemoG1 (eGFP-HT7) = molecular target: T2, ChemoG1 (eGFP-HT7) (Rhodococcus sp. (in: high G+C Gram-positive bacteria), UniProt P0A3G3, L47V/S58T/D78G/Y87F/L88M/C128F/A155T/E160K/A167V/A172T/K175M/C176G/K195N/A224E/N227D/E257K/T264A/H272N/Y273L/P291S/A292T); experiment: X-ray crystallography, […] Å; format: binding; details: covalent; HaloTag labelling with chloroalkane; fluorophore at eGFP-HT7 interface
T2 construct: gene dhaA; eGFP fused directly to N terminus of HaloTag7; His10 removed with TEV protease; E. coli

[1] = molecular target: HaloTag7 (HT7) E143R E147R L271E labeled with SiR, as the C-terminal part of ChemoG5 (construct for fluorescence spectroscopy); experiment: FRET or BRET; intramolecular FRET of the purified eGFP–HT7 fusion (both partners on one chain), 200 nM protein labeled with 400 nM fluorophore–CA substrate, activity buffer (50 mM HEPES, 50 mM NaCl, pH 7.3) with 0.5 mg/ml BSA, 37 °C, plate reader

T1 sequence (P37812 whole entry): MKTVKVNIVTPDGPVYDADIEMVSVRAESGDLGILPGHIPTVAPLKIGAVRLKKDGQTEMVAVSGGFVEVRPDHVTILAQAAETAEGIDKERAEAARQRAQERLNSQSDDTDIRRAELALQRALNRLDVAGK

Nc1ncnc2c1ncn2[C@@H]1O[C@H](COP(=O)(O)OP(=O)(O)OP(=O)(O)O)[C@@H](O)[C@H]1O [ATP]
EC50 (ATeam 1.03): 1800 µM

CN(C)c1ccc2c(-c3cc(C(=O)NCCOCCOCCCCCCCl)ccc3C(=O)[O-])c3ccc(=[N+](C)C)cc-3oc2c1 [TMR-CA]
X-ray crystallography, 1.8 Å (ChemoG1 (eGFP-HT7)): X-ray structure of ChemoG1 labeled with the fluorophore tetramethylrhodamine

eGFP A206K T225R, as the N-terminal part of ChemoG5 (construct for fluorescence spectroscopy) (from UniProt P42212 3-238) (domain or fragment)
FRET efficiency [1]: 95.8%
